Tested on: human SIRT6 promoter
Experiment: SIRT6 promoter activity in Caco-2-SIRT6p-EGFP reporter cells
Assay type: cell-based
Details: Caco-2-SIRT6p-EGFP cells, 10 μM test component, two days after addition, EGFP fluorescence, relative ratio to control (PBS); FIG. 1
Text: The human SIRT6 promoter region (from −1105 to −1 bp; SEQ ID NO: 1) was amplified by PCR using KOD FX (TOYOBO, Tokyo, Japan) with genomic DNA derived from human fetal fibroblast TIG-1 as a template. Primers used were obtained by adding restriction endonuclease recognition sequences of AseI and NheI to the ends based on the reported base sequence information of the hSIRT6 promoter. Specifically, […] designed as SIRT6p-AseI ([…]: SEQ ID NO: 2) and SIRT6p-NheI ([…]: SEQ ID NO: 3) were used. KOD FX (TOYOBO) was used as the DNA polymerase, and PCR was performed under reaction conditions of 40 cycles with one cycle of 94° C. for 2 minutes, 98° C. for 10 seconds, and 68° C. for 1 minute.
The SIRT6 promoter fragment obtained by PCR was TA-cloned into a pGEM-T Easy Vector (Promega Corporation). In addition, the base sequence was confirmed by sequencing. The SIRT6 promoter fragment incorporated into the pGEM-T Easy vector was excised by digestion with restriction enzymes AseI and NheI and inserted into a site of EGFP-C3 (available from Takara Bio Inc.) from which the CMV promoter had been removed by AseI and NheI digestion, and pSIRT6p-EGFP was obtained.
Transfection was performed using HilyMax available from DOJINDO in accordance with its protocol. On the day before transfection, 6.0×10^5 cells of Caco-2 cells (human colon cancer-derived cells; obtained from RIKEN BioResource Research Center) were seeded in a 5-mL dish. On the day of transfection, pSIRT6p-EGFP (15 μg) was diluted with DMEM medium containing 10% FBS to a volume of 300 μL in a 1.5-mL tube, then 70 μL of Hilymax was added to the tube, and the mixture was incubated at room temperature for 20 minutes. Thereafter, the whole amount was added to Caco-2 cells and cultured for 48 hours.
Based on the fact that pSIRT6p-EGFP is resistant to the drug G418 (available from Wako Pure Chemical Industries, Ltd.), drug selection was performed by adding the drug G418 to transfected cells to a final concentration of 800 μg/mL. The culture medium was replaced with a fresh culture medium every 3 days, and G418 was added at the same concentration each time. Caco-2-SIRT6p-EGFP cells were obtained from this.
Using Caco-2-SIRT6p-EGFP cells, a urolithin was examined for its enhancing effect on the promoter of the sirtuin 6 gene SIRT6. […]
Caco-2-SIRT6p-EGFP cells were seeded in a 96-well plate at 0.6×10^4 cells/well. […] This was followed by aspiration and addition of 100 μL of PBS to each well, and the fluorescence intensity was measured with an IN Cell Analyzer 1000 (GE-Healthcare, Amersham Place, UK). The promoter activity was expressed as a relative ratio to the control activity.

Row | Molecule | relative SIRT6 promoter activity (SIRT6 promoter-enhancing activity)
1 | puricalagin | no or little SIRT6 promoter-enhancing activity
2 | O=c1oc2cc(O)ccc2c2ccc(O)cc12 [urolithin A] | strong SIRT6 promoter-enhancing activity
3 | C[C@@]12CCc3occc3[C@H]1CC[C@@]13C[C@@H](CC[C@H]12)[C@@](O)(CO)C3 [cafestol] | no or little SIRT6 promoter-enhancing activity
4 | O=C1OC[C@H]2OC(O)[C@H](O)[C@@H](O)[C@@H]2OC(=O)c2cc(O)c(O)c(O)c2-c2c(O)c(O)c3oc(=O)c4c(c(O)c(O)c5oc(=O)c2c3c54)-c2c1cc(O)c(O)c2O (mixture of isomers) [punicalin] | no or little SIRT6 promoter-enhancing activity
